One block for each compound: values may come before it.
Legend:
diaphragm = assay: dulcitol (galactitol) accumulation in the diaphragm of galactose-fed (galactosemic) rats; type: in vivo, rat (Sprague-Dawley); details: 4 days
Source text: (§1) The aldose reductase inhibiting property of the compounds of this invention and the utilization of the compounds in preventing, diminishing and alleviating diabetic complications are demonstrable in experiments using galactosemic rats, see Dvornik et al., Science, 182, 1146 (1973). Such experiments are exemplified hereinbelow after the listing of the following general comments pertaining to these experiments:
(§2) (a) Four or more groups of six male rats, 50-70 g, Sprague-Dawley strain, were used. The first group, the control group, was fed a mixture of laboratory chow (rodent Laboratory Chow, Purina) and glucose at 20% (w/w %) concentration. An untreated galactosemic group was fed a similar diet in which galactose was substituted for glucose. The third group was fed a diet prepared by mixing a given amount of the test compound with the galactose containing diet. The concentration of galactose in the diet of the treated groups was the same as that for the untreated galactosemic group.
(§3) (b) After four days, the animals were killed by euthanization. Both the lens and sciatic nerve were removed, weighed and stored frozen for polyol determination.
(§4) (c) The polyol determination was performed by a modification of the procedure of M. Kraml and L. Cosyns, Clin. Biochem., 2, 373 (1969). Only two minor reagent changes were made: (a) the rinsing mixture was an aqueous 5% (w/v) trichloroacetic acid solution and (b) the stock solution was prepared by dissolving 25 mg of dulcitol in 100 ml of an aqueous trichloroacetic acid solution. [N.B.: For each experiment the average value found in the tissue from rats fed the glucose diet was substracted from the individual values found in the corresponding tissue in galactose-fed rats to obtain the amount of polyol accumulated.] The aldose reductase inhibiting effects of the compounds of formula (I) were also tested by employing an in vitro testing procedure similar to that described by S. Hayman and J. H. Kinoshita, J. Biol. Chem., 240, 877 (1965). In the present case the procedure of Hayman and Kinoshita was modified in that the final chromatography step was omitted in the preparation of the enzyme from bovine lens.
(§5) The figures under L, N, and D represent the percentage decrease of dulcitol accumulation in the tissues of the lens, sciatic nerve, and diaphragm, respectively, for treated rats as compared to untreated rats.

sciatic nerve = assay: dulcitol (galactitol) accumulation in the sciatic nerve of galactose-fed (galactosemic) rats; type: in vivo, rat (Sprague-Dawley); details: 4 days
Source text: as §1, §2, §3, §4, §5

aldose reductase = molecular target: T1, aldose reductase (Bos taurus, UniProt P16116); assay: in vitro aldose reductase inhibition (modified Hayman and Kinoshita procedure, enzyme from bovine lens); type: biochemical; details: for inhibition at 10 µM: 10^-5 M; for inhibition at 1 µM: 10^-6 M
T1 construct: preparation of the enzyme from bovine lens; from tissue; host or cells: bovine lens
Description: as §4

lens = assay: dulcitol (galactitol) accumulation in the lens of galactose-fed (galactosemic) rats; type: in vivo, rat (Sprague-Dawley); details: 10.2 mg/kg in diet, 4 days
Source text: as §1, §2, §3
(c) The polyol determination was performed by a modification of the procedure of M. Kraml and L. Cosyns, Clin. Biochem., 2, 373 (1969). […]

inhibition at 10 µM (aldose reductase): 0%
Structure (SMILES): CCN1C(=O)CC2(C1=O)C(=O)N(Cc1ccc(Br)cc1F)C(=O)c1ccc(F)cc12 (centres unmarked) [R1=F, R4=CH2 CH3, 2-[(4-bromo-2-fluorophenyl)methyl]-1'-ethyl-6-fluorospiro[isoquinoline-4(1H),3'-pyrrolidine]-1,2',3,5'(2H)-tetrone]
% lowering dulcitol accumulation in vivo, % D (diaphragm; 0.5 mg/kg in diet): 65% | % lowering dulcitol accumulation in vivo, % D (diaphragm; 1.0 mg/kg in diet): 84% | % lowering dulcitol accumulation in vivo, % N (sciatic nerve; 0.5 mg/kg in diet): 19% | % lowering dulcitol accumulation in vivo, % N (sciatic nerve; 1.0 mg/kg in diet): 74%

inhibition at 10 µM (aldose reductase): 0%
Structure (SMILES): CCN1C(=O)CC2(C1=O)C(=O)N(Cc1ccc(Br)cc1F)C(=O)c1ccccc12 (centres unmarked) [R1=H, R4=CH2 CH3, 2-[(4-bromo-2-fluorophenyl)methyl]-1'-ethylspiro[isoquinoline-4(1H), 3'-pyrrolidine]-1,2',3,5'(2H)-tetrone]
% lowering dulcitol accumulation in vivo, % D (diaphragm; 0.5 mg/kg in diet): 56% | % lowering dulcitol accumulation in vivo, % D (diaphragm; 0.9 mg/kg in diet): 73% | % lowering dulcitol accumulation in vivo, % N (sciatic nerve; 0.5 mg/kg in diet): 37% | % lowering dulcitol accumulation in vivo, % N (sciatic nerve; 0.9 mg/kg in diet): 65%

inhibition at 10 µM (aldose reductase): 0%
Structure (SMILES): CN1C(=O)CC2(C1=O)C(=O)N(Cc1ccc(Br)cc1F)C(=O)c1ccccc12 (centres unmarked) [R1=H, R4=CH3, 2-[(4-bromo-2-fluorophenyl)methyl]-1'-methylspiro[isoquinoline-4(1H), 3'-pyrrolidine]-1,2',3,5'(2H)-tetrone]
% lowering dulcitol accumulation in vivo, % D (diaphragm; 0.5 mg/kg in diet): 61% | % lowering dulcitol accumulation in vivo, % D (diaphragm; 1.1 mg/kg in diet): 75% | % lowering dulcitol accumulation in vivo, % D (diaphragm; 10.2 mg/kg in diet): 94% | % lowering dulcitol accumulation in vivo, % N (sciatic nerve; 0.5 mg/kg in diet): 50% | % lowering dulcitol accumulation in vivo, % N (sciatic nerve; 1.1 mg/kg in diet): 76% | % lowering dulcitol accumulation in vivo, % N (sciatic nerve; 10.2 mg/kg in diet): 95% | % lowering dulcitol accumulation in vivo, % L (lens): 31%

inhibition at 1 µM (aldose reductase): 0%
Structure (SMILES): CCN1C(=O)CC2(C1=O)C(=O)N(Cc1nc3cc(C(F)(F)F)ccc3s1)C(=O)c1ccc(F)cc12 (centres unmarked) [R1=F, R4=C2 H5, R5=CF3, 1'-ethyl-6-fluoro-2-[[5-(trifluoromethyl)-2-benzothiazolyl]methyl]spiro[isoquinoline-4(1H),3'-pyrrolidine]-1,2',3,5'(2H)-tetrone]
% Lowering Galactitol Accumulation In Vivo, (%) D (diaphragm; 10 mg/kg/day in diet): 59%

inhibition at 1 µM (aldose reductase): 0%
Structure (SMILES): CN1C(=O)CC2(C1=O)C(=O)N(Cc1nc3cc(C(F)(F)F)ccc3s1)C(=O)c1ccccc12 (centres unmarked) [R1=H, R4=CH3, R5=CF3, 2-[[5-(trifluoromethyl)-2-benzothiazolyl]methyl]-1'-methylspiro[isoquinoline-4(1H),3'-pyrrolidine]-1,2',3,5'(2H)-tetrone]
% Lowering Galactitol Accumulation In Vivo, (%) D (diaphragm; 9.5 mg/kg/day in diet): 100% | % Lowering Galactitol Accumulation In Vivo, (%) N (sciatic nerve; 9.5 mg/kg/day in diet): 82%
